ChEMBL document CHEMBL4507319 (2021)

Experiments:
[1] = system: SNU-398; assay: Snu398 cell line Proliferation assay; assay type: functional, Homo sapiens; details: time 3 day
[2] = molecular target: Leucine-rich repeat serine/threonine-protein kinase 2 (Homo sapiens) (UniProt Q5S007); assay: LRRK2(h) Eurofins kinase panel; details: Compound concentration 1.0 uM
[3] = molecular target: Serine/threonine-protein kinase PAK 4 (Homo sapiens) (UniProt O96013); assay: PAK4(h) Eurofins kinase panel; details: Compound concentration 1.0 uM
[4] = molecular target: Mitogen-activated protein kinase 9 (Homo sapiens) (UniProt P45984); assay: JNK2alpha2(h) Eurofins kinase panel; details: Compound concentration 1.0 uM
[5] = molecular target: Insulin receptor (Homo sapiens) (UniProt P06213); assay: IR(h) Eurofins kinase panel; details: Compound concentration 1.0 uM
[6] = molecular target: Cyclin-dependent kinase 5/CDK5 activator 1 (Homo sapiens) (UniProt Q00535+Q15078); assay: CDK5/p35(h) Eurofins kinase panel; assay type: protein-complex assay; details: Compound concentration 1.0 uM
[7] = molecular target: Tyrosine-protein kinase CSK (Homo sapiens) (UniProt P41240); assay: CSK(h) Eurofins kinase panel; details: Compound concentration 1.0 uM
[8] = system: HeLa; assay: HeLa cell line Proliferation assay; assay type: functional, Homo sapiens; details: time 3 day
[9] = molecular target: Cyclin-dependent kinase 2/cyclin A (Homo sapiens) (UniProt P24941+P20248+P78396); assay: CDK2/cyclinA(h) Eurofins kinase panel; assay type: protein-complex assay; details: Compound concentration 1.0 uM
[10] = molecular target: 5'-AMP-activated protein kinase catalytic subunit alpha-1 (Homo sapiens, UniProt Q13131)
[11] = molecular target: CDK4/Cyclin D3 (Homo sapiens) (UniProt P11802+P30281); assay: CDK4/cyclinD3(h) Eurofins kinase panel; assay type: protein-complex assay; details: Compound concentration 1.0 uM
[12] = molecular target: T1, Dual specificity mitogen-activated protein kinase kinase 6 (Homo sapiens) (UniProt P52564); assay: MKK6(h) Eurofins kinase panel; details: Compound concentration 1.0 uM
T1 sequence (whole entry): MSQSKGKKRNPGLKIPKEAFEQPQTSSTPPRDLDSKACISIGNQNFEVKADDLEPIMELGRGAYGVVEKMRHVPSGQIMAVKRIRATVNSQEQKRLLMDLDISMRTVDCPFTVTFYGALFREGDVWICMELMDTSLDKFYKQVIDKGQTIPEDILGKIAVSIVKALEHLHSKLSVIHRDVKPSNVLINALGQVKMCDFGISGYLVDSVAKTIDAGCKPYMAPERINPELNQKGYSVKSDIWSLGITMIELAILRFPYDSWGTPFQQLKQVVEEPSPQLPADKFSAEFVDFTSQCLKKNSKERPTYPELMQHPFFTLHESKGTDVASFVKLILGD

[13] = molecular target: Death-associated protein kinase 2 (Homo sapiens) (UniProt Q9UIK4); assay: DAPK2(h) Eurofins kinase panel; details: Compound concentration 1.0 uM
[14] = molecular target: Tau-tubulin kinase 1 (Homo sapiens) (UniProt Q5TCY1); assay: TTBK1(h) Eurofins kinase panel; details: Compound concentration 1.0 uM
[15] = molecular target: T2, Myotonin-protein kinase (Homo sapiens) (UniProt Q09013); assay: DMPK(h) Eurofins kinase panel; details: Compound concentration 1.0 uM
T2 sequence (whole entry): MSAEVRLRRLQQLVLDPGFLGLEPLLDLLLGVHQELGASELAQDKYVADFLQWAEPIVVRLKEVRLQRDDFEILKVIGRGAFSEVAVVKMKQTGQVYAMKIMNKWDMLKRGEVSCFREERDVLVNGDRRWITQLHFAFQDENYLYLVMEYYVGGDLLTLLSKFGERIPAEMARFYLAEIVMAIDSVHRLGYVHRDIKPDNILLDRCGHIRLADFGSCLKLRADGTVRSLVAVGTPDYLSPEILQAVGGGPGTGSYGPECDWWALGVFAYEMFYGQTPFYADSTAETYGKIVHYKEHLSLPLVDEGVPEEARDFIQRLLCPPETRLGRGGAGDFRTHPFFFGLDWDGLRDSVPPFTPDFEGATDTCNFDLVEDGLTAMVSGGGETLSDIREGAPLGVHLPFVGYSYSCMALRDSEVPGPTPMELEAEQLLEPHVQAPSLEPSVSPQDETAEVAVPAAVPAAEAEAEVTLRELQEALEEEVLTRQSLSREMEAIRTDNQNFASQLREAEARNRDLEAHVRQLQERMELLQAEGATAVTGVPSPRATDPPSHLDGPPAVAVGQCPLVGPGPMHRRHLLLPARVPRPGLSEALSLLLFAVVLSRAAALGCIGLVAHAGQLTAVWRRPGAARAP

[16] = molecular target: Tyrosine-protein kinase SYK (Homo sapiens) (UniProt P43405); assay: Syk(h) Eurofins kinase panel; details: Compound concentration 1.0 uM
[17] = molecular target: T3, Serine/threonine-protein kinase Nek1 (Homo sapiens) (UniProt Q96PY6); assay: NEK1(h) Eurofins kinase panel; details: Compound concentration 1.0 uM
T3 sequence (whole entry): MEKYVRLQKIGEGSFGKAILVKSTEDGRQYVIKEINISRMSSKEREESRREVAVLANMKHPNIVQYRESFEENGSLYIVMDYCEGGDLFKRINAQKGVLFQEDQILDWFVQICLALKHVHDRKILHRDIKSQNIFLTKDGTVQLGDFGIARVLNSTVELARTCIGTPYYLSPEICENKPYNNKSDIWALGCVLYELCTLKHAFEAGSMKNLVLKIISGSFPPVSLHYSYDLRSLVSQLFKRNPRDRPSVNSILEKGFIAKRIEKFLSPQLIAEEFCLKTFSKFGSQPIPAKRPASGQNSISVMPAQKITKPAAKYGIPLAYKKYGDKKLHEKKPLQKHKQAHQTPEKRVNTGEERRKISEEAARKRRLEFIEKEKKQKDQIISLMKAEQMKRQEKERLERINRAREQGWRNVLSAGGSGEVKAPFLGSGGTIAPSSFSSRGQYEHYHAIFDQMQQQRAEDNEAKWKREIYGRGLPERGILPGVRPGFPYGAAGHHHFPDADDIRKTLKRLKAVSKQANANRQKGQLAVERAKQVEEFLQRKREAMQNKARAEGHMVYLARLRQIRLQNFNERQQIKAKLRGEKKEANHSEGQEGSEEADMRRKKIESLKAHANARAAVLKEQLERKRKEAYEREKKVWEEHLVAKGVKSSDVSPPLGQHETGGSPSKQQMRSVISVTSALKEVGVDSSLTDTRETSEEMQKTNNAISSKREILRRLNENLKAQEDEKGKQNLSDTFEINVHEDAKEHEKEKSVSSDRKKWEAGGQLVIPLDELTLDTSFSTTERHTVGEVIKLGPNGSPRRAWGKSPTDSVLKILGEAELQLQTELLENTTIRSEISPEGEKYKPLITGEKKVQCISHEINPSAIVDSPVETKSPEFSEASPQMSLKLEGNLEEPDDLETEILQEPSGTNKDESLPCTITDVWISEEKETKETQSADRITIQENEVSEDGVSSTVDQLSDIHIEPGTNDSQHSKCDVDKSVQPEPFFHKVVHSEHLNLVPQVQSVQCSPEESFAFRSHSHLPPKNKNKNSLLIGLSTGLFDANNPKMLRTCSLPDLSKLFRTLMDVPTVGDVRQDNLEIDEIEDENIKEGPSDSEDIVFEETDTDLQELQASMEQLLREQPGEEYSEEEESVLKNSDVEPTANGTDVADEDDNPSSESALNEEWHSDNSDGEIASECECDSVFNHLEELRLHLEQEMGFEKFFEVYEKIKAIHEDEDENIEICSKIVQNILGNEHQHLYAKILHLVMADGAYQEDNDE

[18] = system: NCI-H460; assay: NCI- H460 cell line Proliferation assay; assay type: functional, Homo sapiens; details: time 3 day

Cyclin-dependent kinase 5/CDK5 activator 1 (Homo sapiens), sequence (Q00535 whole entry): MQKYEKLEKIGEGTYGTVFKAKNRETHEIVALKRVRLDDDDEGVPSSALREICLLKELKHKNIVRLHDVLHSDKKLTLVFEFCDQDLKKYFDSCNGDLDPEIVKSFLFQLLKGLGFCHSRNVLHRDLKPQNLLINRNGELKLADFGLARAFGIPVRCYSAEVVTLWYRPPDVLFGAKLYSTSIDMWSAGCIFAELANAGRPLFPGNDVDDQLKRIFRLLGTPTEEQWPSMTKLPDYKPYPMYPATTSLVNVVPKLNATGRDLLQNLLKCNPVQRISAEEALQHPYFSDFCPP
Cyclin-dependent kinase 5/CDK5 activator 1 (Homo sapiens), sequence (Q15078 99-307 partner limits assumed): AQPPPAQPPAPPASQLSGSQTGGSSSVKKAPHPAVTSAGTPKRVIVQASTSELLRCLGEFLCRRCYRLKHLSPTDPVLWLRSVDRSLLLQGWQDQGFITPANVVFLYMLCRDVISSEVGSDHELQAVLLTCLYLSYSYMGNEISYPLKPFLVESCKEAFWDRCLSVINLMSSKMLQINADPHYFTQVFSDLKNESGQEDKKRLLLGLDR
5'-AMP-activated protein kinase catalytic subunit alpha-1, sequence (Q13131 whole entry): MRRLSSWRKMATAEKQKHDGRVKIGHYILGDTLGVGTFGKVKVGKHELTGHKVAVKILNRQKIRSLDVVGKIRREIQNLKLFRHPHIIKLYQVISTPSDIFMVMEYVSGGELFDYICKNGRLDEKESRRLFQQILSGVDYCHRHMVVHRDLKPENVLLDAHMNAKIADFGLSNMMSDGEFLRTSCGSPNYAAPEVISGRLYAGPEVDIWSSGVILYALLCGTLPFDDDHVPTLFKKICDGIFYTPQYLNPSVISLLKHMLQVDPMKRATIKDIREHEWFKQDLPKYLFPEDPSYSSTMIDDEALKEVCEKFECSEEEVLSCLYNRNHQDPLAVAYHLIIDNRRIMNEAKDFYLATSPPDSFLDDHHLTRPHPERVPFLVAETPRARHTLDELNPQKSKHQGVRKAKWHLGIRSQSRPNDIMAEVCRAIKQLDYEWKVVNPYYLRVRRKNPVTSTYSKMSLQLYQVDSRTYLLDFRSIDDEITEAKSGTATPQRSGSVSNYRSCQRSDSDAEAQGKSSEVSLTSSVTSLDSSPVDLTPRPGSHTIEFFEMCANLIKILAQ
Serine/threonine-protein kinase PAK 4 (Homo sapiens), sequence (O96013 whole entry, looked up): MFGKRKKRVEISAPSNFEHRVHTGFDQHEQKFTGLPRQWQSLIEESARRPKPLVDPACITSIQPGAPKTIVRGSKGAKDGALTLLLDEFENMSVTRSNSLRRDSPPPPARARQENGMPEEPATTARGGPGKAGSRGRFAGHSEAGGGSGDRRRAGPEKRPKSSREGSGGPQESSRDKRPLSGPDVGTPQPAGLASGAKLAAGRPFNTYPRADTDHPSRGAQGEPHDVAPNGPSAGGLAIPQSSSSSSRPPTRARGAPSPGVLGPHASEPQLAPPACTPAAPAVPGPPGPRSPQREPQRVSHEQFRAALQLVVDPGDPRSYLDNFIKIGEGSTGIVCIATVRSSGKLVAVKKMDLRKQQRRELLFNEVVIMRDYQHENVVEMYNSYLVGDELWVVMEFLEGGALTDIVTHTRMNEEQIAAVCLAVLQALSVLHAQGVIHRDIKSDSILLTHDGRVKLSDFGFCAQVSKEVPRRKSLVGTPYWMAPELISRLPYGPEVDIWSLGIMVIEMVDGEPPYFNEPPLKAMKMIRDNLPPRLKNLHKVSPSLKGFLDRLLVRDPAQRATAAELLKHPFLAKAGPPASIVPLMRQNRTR
Tyrosine-protein kinase CSK (Homo sapiens), sequence (P41240 2-450 limits assumed): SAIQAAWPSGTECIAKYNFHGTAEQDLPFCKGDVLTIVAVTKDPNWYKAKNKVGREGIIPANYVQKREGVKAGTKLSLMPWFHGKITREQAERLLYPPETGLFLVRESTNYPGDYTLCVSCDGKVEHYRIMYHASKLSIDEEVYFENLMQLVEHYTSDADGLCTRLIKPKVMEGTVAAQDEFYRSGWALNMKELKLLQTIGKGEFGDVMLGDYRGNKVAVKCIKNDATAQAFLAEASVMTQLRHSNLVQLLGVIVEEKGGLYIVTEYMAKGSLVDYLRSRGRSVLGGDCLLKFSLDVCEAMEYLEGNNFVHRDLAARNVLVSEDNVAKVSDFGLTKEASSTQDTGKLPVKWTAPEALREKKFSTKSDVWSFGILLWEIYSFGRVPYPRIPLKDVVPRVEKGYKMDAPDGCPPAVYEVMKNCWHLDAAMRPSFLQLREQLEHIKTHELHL
Mitogen-activated protein kinase 9 (Homo sapiens), sequence (P45984 whole entry, looked up): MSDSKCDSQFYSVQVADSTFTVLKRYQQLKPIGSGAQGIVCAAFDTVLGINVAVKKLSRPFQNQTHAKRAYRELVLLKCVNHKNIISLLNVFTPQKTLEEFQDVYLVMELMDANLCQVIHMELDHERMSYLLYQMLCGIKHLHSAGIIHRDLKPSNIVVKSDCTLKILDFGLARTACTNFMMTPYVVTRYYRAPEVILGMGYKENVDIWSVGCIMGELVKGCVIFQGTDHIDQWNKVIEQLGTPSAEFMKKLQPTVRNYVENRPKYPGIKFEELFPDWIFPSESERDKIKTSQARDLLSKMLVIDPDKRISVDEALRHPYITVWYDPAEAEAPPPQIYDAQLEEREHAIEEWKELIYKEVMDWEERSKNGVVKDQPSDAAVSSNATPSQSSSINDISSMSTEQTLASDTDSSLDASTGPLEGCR
Tau-tubulin kinase 1 (Homo sapiens), sequence (Q5TCY1 whole entry): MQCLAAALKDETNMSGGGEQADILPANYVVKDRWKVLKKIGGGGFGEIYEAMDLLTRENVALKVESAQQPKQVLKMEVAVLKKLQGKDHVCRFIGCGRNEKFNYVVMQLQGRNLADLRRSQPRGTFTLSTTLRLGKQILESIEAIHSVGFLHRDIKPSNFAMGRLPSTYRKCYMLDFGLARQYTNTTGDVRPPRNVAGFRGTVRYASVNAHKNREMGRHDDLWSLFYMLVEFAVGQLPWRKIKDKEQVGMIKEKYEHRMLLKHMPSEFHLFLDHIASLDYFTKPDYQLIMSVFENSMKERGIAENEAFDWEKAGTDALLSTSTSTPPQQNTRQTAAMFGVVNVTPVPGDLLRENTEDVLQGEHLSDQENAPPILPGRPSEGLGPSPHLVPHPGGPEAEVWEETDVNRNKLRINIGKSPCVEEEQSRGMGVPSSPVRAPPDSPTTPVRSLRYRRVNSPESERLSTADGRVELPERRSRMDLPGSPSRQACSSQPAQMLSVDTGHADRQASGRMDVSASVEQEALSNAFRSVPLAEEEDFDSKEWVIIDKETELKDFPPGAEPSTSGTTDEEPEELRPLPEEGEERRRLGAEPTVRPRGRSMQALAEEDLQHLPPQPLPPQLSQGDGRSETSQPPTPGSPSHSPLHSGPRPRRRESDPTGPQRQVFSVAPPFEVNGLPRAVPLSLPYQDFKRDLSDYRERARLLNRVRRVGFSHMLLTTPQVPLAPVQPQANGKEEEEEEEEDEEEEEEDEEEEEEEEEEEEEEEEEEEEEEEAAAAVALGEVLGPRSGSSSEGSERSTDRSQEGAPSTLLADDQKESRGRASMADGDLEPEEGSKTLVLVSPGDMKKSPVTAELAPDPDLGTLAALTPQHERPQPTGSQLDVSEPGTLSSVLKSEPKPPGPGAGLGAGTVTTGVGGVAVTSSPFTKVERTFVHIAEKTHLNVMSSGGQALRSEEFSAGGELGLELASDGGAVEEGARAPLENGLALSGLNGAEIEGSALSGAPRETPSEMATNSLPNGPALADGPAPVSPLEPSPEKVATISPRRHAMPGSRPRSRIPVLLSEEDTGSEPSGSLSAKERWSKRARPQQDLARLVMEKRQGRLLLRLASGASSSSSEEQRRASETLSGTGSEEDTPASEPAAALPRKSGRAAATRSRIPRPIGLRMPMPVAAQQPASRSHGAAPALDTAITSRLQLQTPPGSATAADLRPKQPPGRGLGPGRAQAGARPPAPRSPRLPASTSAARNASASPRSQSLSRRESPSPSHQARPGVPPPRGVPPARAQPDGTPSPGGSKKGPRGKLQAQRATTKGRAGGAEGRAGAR
Death-associated protein kinase 2 (Homo sapiens), sequence (Q9UIK4 whole entry, looked up): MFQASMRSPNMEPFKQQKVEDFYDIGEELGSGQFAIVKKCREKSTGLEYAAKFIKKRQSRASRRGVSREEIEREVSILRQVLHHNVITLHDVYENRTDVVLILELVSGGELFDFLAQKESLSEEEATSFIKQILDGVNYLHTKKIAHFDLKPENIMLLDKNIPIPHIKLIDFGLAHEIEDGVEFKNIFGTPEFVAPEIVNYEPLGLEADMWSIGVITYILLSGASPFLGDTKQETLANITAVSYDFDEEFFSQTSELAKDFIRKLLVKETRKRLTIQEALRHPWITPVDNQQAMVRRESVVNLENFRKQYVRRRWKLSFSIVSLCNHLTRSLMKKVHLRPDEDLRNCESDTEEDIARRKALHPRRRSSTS

CCc1ccccc1C(=O)Nc1n[nH]c2c(C)c(F)c(C3C(C#N)=C(C)N(C)C(C)=C3C#N)cc12 [BAY-3827]
0.01 µM: IC50 [10]
7.3 µM: Cell Proliferation IC50 [1]
inactive: % residual kinase activity [2] 95% | % residual kinase activity [3] 91% | % residual kinase activity [4] 88% | % residual kinase activity [5] 115% | % residual kinase activity [6] 99% | % residual kinase activity [7] 90% | % residual kinase activity [9] 100% | % residual kinase activity [11] 112% | % residual kinase activity [12] 94% | % residual kinase activity [13] 96% | % residual kinase activity [14] 104% | % residual kinase activity [15] 91% | % residual kinase activity [16] 106% | % residual kinase activity [17] 102%
25.7 µM: Cell Proliferation IC50 [8]
>33 µM: Cell Proliferation IC50 [18]
